# From ChEMBL document CHEMBL5634148, “Synthesis and evaluation of novel pleuromutilin derivatives targeting the 50S ribosomal subunit for antibacterial ability” (Eur J Med Chem, 2023)
# The source made the active and inactive calls. The rule behind the calls is not given here.
# Columns and labels:
# [1] = Cytotoxicity against human HepG2 cells assessed as cell viability incubated for 6 hrs by CCK8 assay; type: toxicity, cell-based
# Staphylococcus aureus [2] = experiment: Antibacterial activity against methicillin-resistant Staphylococcus aureus ATCC 29213 assessed as reduction in bacterial count at 6 times MIC incubated for 24 hrs by time kill assay; type: functional
# Staphylococcus aureus [3] = experiment: Antibacterial activity against Staphylococcus aureus assessed as reduction in bacterial count at 1 to 6 times MIC incubated for 24 hrs by time kill assay; type: functional
# Staphylococcus aureus [4] = experiment: Bactericidal activity against Staphylococcus aureus incubated for 24 hrs by time kill assay; type: functional, organism-based
# [5] = Toxicity in po-dosed Wistar rat measured for 14 days by H and E staining based analysis; conditions: in vivo, time 14 day
# Staphylococcus aureus [6] = experiment: Antibacterial activity against methicillin-resistant Staphylococcus aureus BNCC 337371 assessed as bacterial growth inhibition incubated for 18 to 24 hrs by NCCLS based assay; type: functional; conditions: time 18-24 hrs
# [7] = tested on: Staphylococcus epidermidis; experiment: Antibacterial activity against methicillin-resistant Staphylococcus epidermidis ATCC 51625 assessed as bacterial growth inhibition incubated for 18 to 24 hrs by NCCLS based assay; type: functional; conditions: time 18-24 hrs
# Streptococcus agalactiae = experiment: Antibacterial activity against Streptococcus agalactiae assessed as bacterial growth inhibition incubated for 18 to 24 hrs by NCCLS based assay; type: functional; conditions: time 18-24 hrs
# Enterococcus faecalis = experiment: Antibacterial activity against Enterococcus faecalis assessed as bacterial growth inhibition incubated for 18 to 24 hrs by NCCLS based assay; type: functional; conditions: time 18-24 hrs
# Pasteurella multocida = experiment: Antibacterial activity against Pasteurella multocida CVCC 1659 assessed as bacterial growth inhibition incubated for 18 to 24 hrs by NCCLS based assay; type: functional; conditions: time 18-24 hrs
# Escherichia coli = experiment: Antibacterial activity against Escherichia coli CICC 10389 assessed as bacterial growth inhibition incubated for 18 to 24 hrs by NCCLS based assay; type: functional; conditions: time 18-24 hrs
# Staphylococcus aureus [8] = experiment: Drug sensitivity against Staphylococcus aureus at 1/4 times MIC measured after 4 passages; type: functional, organism-based
# [9] = Cytotoxicity against human HepG2 cells assessed as cell viability at 200 uM incubated for 6 hrs by CCK8 assay relative to control; type: toxicity, cell-based; conditions: read-out: Activity
# [10] = Cytotoxicity against HEK293T cells assessed as cell viability at 200 uM incubated for 6 hrs by CCK8 assay relative to control; type: toxicity, cell-based, HEK-293T; conditions: human, read-out: Activity
# [11] = Cytotoxicity against HEK293T cells assessed as cell viability incubated for 6 hrs by CCK8 assay; type: toxicity, cell-based, HEK-293T; conditions: human
# [12] = Toxicity in Wistar rat assessed as trembling at 2000 mg/kg, po measured for 24 hrs; type: organism-based; conditions: in vivo
# [13] = Toxicity in Wistar rat assessed as piloerection at 2000 mg/kg, po measured for 24 hrs; type: organism-based; conditions: in vivo
# [14] = Toxicity in Wistar rat assessed as physical activity at 2000 mg/kg, po measured for 24 hrs; type: organism-based; conditions: in vivo
# [15] = Toxicity in Wistar rat assessed as trembling at 2000 mg/kg, po measured for 48 hrs; type: organism-based; conditions: in vivo
# [16] = Toxicity in Wistar rat assessed as physical activity at 2000 mg/kg, po measured for 48 hrs; type: organism-based; conditions: in vivo
# [17] = Toxicity in Wistar rat assessed as body weight loss at 2000 mg/kg, po measured for 14 days; type: organism-based; conditions: in vivo, 336 h, time 14 day
# [18] = Toxicity in Wistar rat assessed as food intake at 2000 mg/kg, po measured for 14 days; type: organism-based; conditions: in vivo, 336 h, time 14 day
# [19] = Toxicity in Wistar rat assessed as water consumption at 2000 mg/kg, po measured for 14 days; type: organism-based; conditions: in vivo, 336 h, time 14 day
# [20] = Toxicity in Wistar rat assessed as fatality at 2000 mg/kg, po measured for 7 days; type: organism-based; conditions: in vivo, 168 h, time 7 day
# [21] = Toxicity in Wistar rat assessed as absolute heart weight at 2000 mg/kg, po measured after 14 days (reference value: 0.86 +/- 0.09 g); type: organism-based; conditions: in vivo, 336 h, time 14 day
# [22] = Toxicity in Wistar rat assessed as absolute liver weight at 2000 mg/kg, po measured after 14 days (reference value: 10.02 +/- 0.44 g); type: organism-based; conditions: in vivo, 336 h, time 14 day
# [23] = Toxicity in Wistar rat assessed as absolute lungs weight at 2000 mg/kg, po measured after 14 days (reference value: 1.38 +/- 0.17 g); type: organism-based; conditions: in vivo, 336 h, time 14 day
# [24] = Toxicity in Wistar rat assessed as absolute kidneys weight at 2000 mg/kg, po measured after 14 days (reference value: 1.77 +/- 0.16 g); type: organism-based; conditions: in vivo, 336 h, time 14 day
# [25] = Toxicity in Wistar rat assessed as absolute uterus weight at 2000 mg/kg, po measured after 14 days (reference value: 0.87 +/- 0.06 g); type: organism-based; conditions: in vivo, 336 h, time 14 day
# [26] = Toxicity in Wistar rat assessed as relative heart weight at 2000 mg/kg, po measured after 14 days (reference value: 0.36 +/- 0.03 %); type: organism-based; conditions: in vivo, 336 h, time 14 day
# [27] = Toxicity in Wistar rat assessed as relative liver weight at 2000 mg/kg, po measured after 14 days (reference value: 4.37 +/- 0.18 %); type: organism-based; conditions: in vivo, 336 h, time 14 day
# [28] = Toxicity in Wistar rat assessed as relative spleen weight at 2000 mg/kg, po measured after 14 days (reference value: 0.20 +/- 0.07 %); type: organism-based; conditions: in vivo, 336 h, time 14 day
# [29] = Toxicity in Wistar rat assessed as relative kidneys weight at 2000 mg/kg, po measured after 14 days (reference value: 0.91 +/- 0.18 %); type: organism-based; conditions: in vivo, 336 h, time 14 day
# [30] = Toxicity in Wistar rat assessed as congestion in hepatic central vein at 2000 mg/kg, po measured for 14 days by H and E staining based analysis; type: organism-based; conditions: in vivo, 336 h, time 14 day
# [31] = Toxicity in Wistar rat assessed as hepatocyte fatty degeneration at 2000 mg/kg, po measured for 14 days by H and E staining based analysis; type: organism-based; conditions: hepatocytes, 336 h, time 14 day
# [32] = Toxicity in Wistar rat assessed as degeneration of alveolar epithelial cells in lungs at 2000 mg/kg, po measured for 14 days by H and E staining based analysis; type: organism-based; conditions: in vivo, 336 h, time 14 day
# [33] = Toxicity in Wistar rat assessed as necrosis of alveolar epithelial cells in lungs at 2000 mg/kg, po measured for 14 days by H and E staining based analysis; type: organism-based; conditions: in vivo, 336 h, time 14 day
# [34] = Toxicity in Wistar rat assessed as vascular congestion in lungs at 2000 mg/kg, po measured for 14 days by H and E staining based analysis; type: organism-based; conditions: in vivo, 336 h, time 14 day
# [35] = Toxicity in neutropenic Balb/c mouse model infected with methicillin-resistant Staphylococcus aureus assessed as animal survival at 40 mg/kg, iv measured for 7 days; type: organism-based; conditions: in vivo, 168 h, time 7 day
# Staphylococcus aureus [36] = experiment: Antibacterial activity against methicillin-resistant Staphylococcus aureus infected in neutropenic Balb/c mouse model assessed as reduction in bacterial load in lungs at 40 mg/kg, iv measured after 5 days; type: functional; conditions: time 5 day
# Staphylococcus aureus [37] = experiment: Antibacterial activity against methicillin-resistant Staphylococcus aureus infected in neutropenic Balb/c mouse model assessed as reduction in bacterial load in liver at 40 mg/kg, iv measured after 5 days; type: functional, organism-based; conditions: time 5.0 day
# Staphylococcus aureus [38] = experiment: Antibacterial activity against methicillin-resistant Staphylococcus aureus infected in neutropenic Balb/c mouse model assessed as thickening of alveolar septa in lungs at 40 mg/kg, iv measured after 5 days; type: functional, organism-based; conditions: time 5.0 day
# Staphylococcus aureus [39] = experiment: Antibacterial activity against methicillin-resistant Staphylococcus aureus infected in neutropenic Balb/c mouse model assessed as thickening of alveolar walls in lungs at 40 mg/kg, iv measured after 5 days; type: functional, organism-based; conditions: time 5.0 day
structure (smiles),measurement,setting,value
C=C[C@]1(C)C[C@@H](OC(=O)CSc2ncnc(N(C)C)n2)[C@]2(C)[C@H](C)CC[C@]3(CCC(=O)[C@H]32)[C@@H](C)[C@@H]1O,CC50 at 6 h,[1],84.6 µM
same,log(activity),Staphylococcus aureus [2],1.72
same,log(activity),Staphylococcus aureus [3],2.5
same,Activity,Staphylococcus aureus [4],Dose-Dependent Effect
same,LD50 at 336 h,[5],> 2000 mg/kg
same,MIC,Staphylococcus aureus [6],0.031 µg/mL
same,MIC,[7],0.125 µg/mL
same,MIC,Streptococcus agalactiae,0.063 µg/mL
same,MIC,Enterococcus faecalis,32 µg/mL
same,MIC,Pasteurella multocida,≥ 64 µg/mL
same,MIC,Escherichia coli,≥ 64 µg/mL
same,Activity,Staphylococcus aureus [8],Active
same,"viability at 6 h, 200 µM",[9],60.2%
same,"viability at 6 h, 200 µM",[10],66.9%
same,CC50 at 6 h,[11],50.1 µM
same,Activity,[12],Toxic
same,Activity,[13],Toxic
same,Activity,[14],Toxic
same,Activity,[15],Non-Toxic
same,Activity,[16],Non-Toxic
same,Activity,[17],Toxic
same,Activity,[18],Toxic
same,Activity,[19],Toxic
same,Activity,[20],Non-Toxic
same,Activity,[21],0.75 g
same,Activity,[22],9.09 g
same,Activity,[23],1.21 g
same,Activity,[24],1.85 g
same,Activity,[25],0.68 g
same,Activity,[26],0.34%
same,Activity,[27],3.99%
same,Activity,[28],0.26%
same,Activity,[29],0.74%
same,Activity,[30],Toxic
same,Activity,[31],Toxic
same,Activity,[32],Toxic
same,Activity,[33],Toxic
same,Activity,[34],Toxic
same,Activity,[35],70%
same,Activity,Staphylococcus aureus [36],2.52 log10CFU/ml
same,Activity,Staphylococcus aureus [37],Active
same,Activity,Staphylococcus aureus [38],Active
same,Activity,Staphylococcus aureus [39],Active
